Test results taken from ChEMBL document CHEMBL1201862, “PubChem BioAssay data set” (2004).
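These data come from cells grown in 96-well plates and exposed to compound for 48 hours at five concentrations. At the GI50, growth is halved.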 Active and inactive are the calls of the source. No stated cut-off is given here; in the data, active = GI50 up to about 1.1 µM and inactive = higher.

Legend:
Assay in all cases: NCI tumour cell line growth inhibition, 48 h
786-0 = system: 786-0
A498 = system: A498
A549 = system: A549
ACHN = system: ACHN
CAKI-1 = system: CAKI-1
CCRF-CEM = system: CCRF-CEM
COLO 205 = system: COLO 205
DLD-1 = system: DLD-1
DMS-114 = system: DMS-114
DMS-273 = system: DMS-273
EKVX = system: EKVX
HCT-116 = system: HCT-116
HCT-15 = system: HCT-15
HL-60 = system: HL-60
HOP-18 = system: HOP-18
HOP-62 = system: HOP-62
HOP-92 = system: HOP-92
HT-29 = system: HT-29
IGROV-1 = system: IGROV-1
K562 = system: K562
KM12 = system: KM12
LOX IMVI = system: LOX IMVI
LXFL 529 = system: LXFL 529
M14 = system: M14
M19-MEL = system: M19-MEL
MOLT-4 = system: MOLT-4
Malme-3M = system: Malme-3M
NCI-H23 = system: NCI-H23
NCI-H460 = system: NCI-H460
NCI-H522 = system: NCI-H522
OVCAR-3 = system: OVCAR-3
OVCAR-4 = system: OVCAR-4
OVCAR-5 = system: OVCAR-5
OVCAR-8 = system: OVCAR-8
RPMI-8226 = system: RPMI-8226
RXF 393 = system: RXF 393
RXF 631 = system: RXF 631
SF-268 = system: SF-268
SF-295 = system: SF-295
SF-539 = system: SF-539
SK-MEL-28 = system: SK-MEL-28
SK-MEL-2 = system: SK-MEL-2
SK-MEL-5 = system: SK-MEL-5
SK-OV-3 = system: SK-OV-3
SN12C = system: SN12C
SNB-19 = system: SNB-19
SNB-75 = system: SNB-75
SNB-78 = system: SNB-78
SR = system: SR
SW-620 = system: SW-620
TK-10 = system: TK-10
U-251 = system: U-251
UACC-257 = system: UACC-257
UACC-62 = system: UACC-62
UO-31 = system: UO-31
XF498 = system: XF498
HCC 2998 = system: HCC 2998
KM-20L2 = system: KM-20L2
NCI-H226 = system: NCI-H226

O=C1NC2(CCCC2)C2CCCCC12O (stereo not drawn)
GI50 (786-0): > 100 µM (inactive)
GI50 (A498): > 100 µM (inactive)
GI50 (A549): > 100 µM (inactive)
GI50 (ACHN): > 100 µM (inactive)
GI50 (CAKI-1): > 100 µM (inactive)
GI50 (CCRF-CEM): > 100 µM (inactive)
GI50 (COLO 205): > 100 µM (inactive)
GI50 (DLD-1): > 100 µM (inactive)
GI50 (DMS-114): > 100 µM (inactive)
GI50 (DMS-273): > 100 µM (inactive)
GI50 (EKVX): > 100 µM (inactive)
GI50 (HCT-116): > 100 µM (inactive)
GI50 (HCT-15): > 100 µM
GI50 (HL-60): > 100 µM (inactive)
GI50 (HOP-18): > 100 µM (inactive)
GI50 (HOP-62): > 100 µM (inactive)
GI50 (HOP-92): > 100 µM (inactive)
GI50 (HT-29): > 100 µM (inactive)
GI50 (IGROV-1): > 100 µM (inactive)
GI50 (K562): > 100 µM (inactive)
GI50 (KM12): > 100 µM (inactive)
GI50 (LOX IMVI): > 100 µM (inactive)
GI50 (LXFL 529): > 100 µM (inactive)
GI50 (M14): > 100 µM (inactive)
GI50 (M19-MEL): > 100 µM (inactive)
GI50 (MOLT-4): > 100 µM (inactive)
GI50 (Malme-3M): > 100 µM (inactive)
GI50 (NCI-H23): > 100 µM (inactive)
GI50 (NCI-H460): > 100 µM (inactive)
GI50 (NCI-H522): > 100 µM (inactive)
GI50 (OVCAR-3): > 100 µM (inactive)
GI50 (OVCAR-4): > 100 µM (inactive)
GI50 (OVCAR-5): > 100 µM (inactive)
GI50 (OVCAR-8): > 100 µM (inactive)
GI50 (RPMI-8226): > 100 µM (inactive)
GI50 (RXF 393): > 100 µM (inactive)
GI50 (RXF 631): > 100 µM (inactive)
GI50 (SF-268): > 100 µM (inactive)
GI50 (SF-295): > 100 µM (inactive)
GI50 (SF-539): > 100 µM (inactive)
GI50 (SK-MEL-28): > 100 µM (inactive)
GI50 (SK-MEL-2): > 100 µM (inactive)
GI50 (SK-MEL-5): > 100 µM (inactive)
GI50 (SK-OV-3): > 100 µM (inactive)
GI50 (SN12C): > 100 µM (inactive)
GI50 (SNB-19): > 100 µM (inactive)
GI50 (SNB-75): > 100 µM (inactive)
GI50 (SNB-78): > 100 µM (inactive)
GI50 (SR): > 100 µM (inactive)
GI50 (SW-620): > 100 µM (inactive)
GI50 (TK-10): > 100 µM (inactive)
GI50 (U-251): > 100 µM (inactive)
GI50 (UACC-257): > 100 µM (inactive)
GI50 (UACC-62): > 100 µM (inactive)
GI50 (UO-31): > 100 µM (inactive)
GI50 (XF498): > 100 µM (inactive)

Cc1cc(C)cc(NC(=O)CCC(=O)C2CCC/C2=N\NC(=O)C(=O)NN)c1 (stereo not drawn)
GI50 (786-0): > 100 µM (inactive)
GI50 (A498): > 100 µM (inactive)
GI50 (A549): > 100 µM (inactive)
GI50 (ACHN): > 100 µM (inactive)
GI50 (CAKI-1): > 100 µM (inactive)
GI50 (CCRF-CEM): > 100 µM (inactive)
GI50 (COLO 205): > 100 µM (inactive)
GI50 (DLD-1): > 100 µM (inactive)
GI50 (DMS-114): > 100 µM (inactive)
GI50 (DMS-273): > 100 µM (inactive)
GI50 (EKVX): > 100 µM (inactive)
GI50 (HCC 2998): > 100 µM (inactive)
GI50 (HCT-116): > 100 µM (inactive)
GI50 (HCT-15): > 100 µM
GI50 (HL-60): > 100 µM (inactive)
GI50 (HOP-18): > 100 µM (inactive)
GI50 (HT-29): > 100 µM (inactive)
GI50 (IGROV-1): > 100 µM (inactive)
GI50 (K562): > 100 µM (inactive)
GI50 (KM-20L2): > 100 µM (inactive)
GI50 (KM12): > 100 µM (inactive)
GI50 (LOX IMVI): > 100 µM (inactive)
GI50 (LXFL 529): > 100 µM (inactive)
GI50 (M14): > 100 µM (inactive)
GI50 (M19-MEL): > 100 µM (inactive)
GI50 (MOLT-4): > 100 µM (inactive)
GI50 (Malme-3M): > 100 µM (inactive)
GI50 (NCI-H226): > 100 µM (inactive)
GI50 (NCI-H23): > 100 µM (inactive)
GI50 (NCI-H460): > 100 µM (inactive)
GI50 (OVCAR-3): > 100 µM (inactive)
GI50 (OVCAR-4): > 100 µM (inactive)
GI50 (OVCAR-5): > 100 µM (inactive)
GI50 (OVCAR-8): > 100 µM (inactive)
GI50 (RPMI-8226): > 100 µM (inactive)
GI50 (RXF 393): > 100 µM (inactive)
GI50 (RXF 631): > 100 µM (inactive)
GI50 (SF-268): > 100 µM (inactive)
GI50 (SF-295): > 100 µM (inactive)
GI50 (SF-539): > 100 µM (inactive)
GI50 (SK-MEL-28): > 100 µM (inactive)
GI50 (SK-MEL-2): > 100 µM (inactive)
GI50 (SK-MEL-5): > 100 µM (inactive)
GI50 (SK-OV-3): > 100 µM (inactive)
GI50 (SN12C): > 100 µM (inactive)
GI50 (SNB-19): > 100 µM (inactive)
GI50 (SNB-75): > 100 µM (inactive)
GI50 (SW-620): > 100 µM (inactive)
GI50 (TK-10): > 100 µM (inactive)
GI50 (U-251): > 100 µM (inactive)
GI50 (UACC-257): > 100 µM (inactive)
GI50 (UACC-62): > 100 µM (inactive)
GI50 (UO-31): > 100 µM (inactive)
GI50 (XF498): > 100 µM (inactive)

O=C(/C=C/c1ccc(Cl)c(Cl)c1)c1ccccc1Cl
GI50 (786-0): 5.32 µM (inactive)
GI50 (A498): 17 µM (inactive)
GI50 (A549): 15.8 µM (inactive)
GI50 (ACHN): 15.3 µM (inactive)
GI50 (CAKI-1): 9.89 µM (inactive)
GI50 (CCRF-CEM): 6.67 µM (inactive)
GI50 (COLO 205): 16.1 µM (inactive)
GI50 (DLD-1): 5.12 µM (inactive)
GI50 (DMS-114): 5.3 µM (inactive)
GI50 (DMS-273): 6.47 µM (inactive)
GI50 (EKVX): 17.3 µM (inactive)
GI50 (HCC 2998): 10.5 µM (inactive)
GI50 (HCT-116): 4.71 µM (inactive)
GI50 (HCT-15): 5.45 µM
GI50 (HL-60): 6.61 µM (inactive)
GI50 (HOP-18): 12.7 µM (inactive)
GI50 (HOP-62): 18.7 µM (inactive)
GI50 (HOP-92): 16.7 µM (inactive)
GI50 (HT-29): 6.07 µM (inactive)
GI50 (IGROV-1): 9.84 µM (inactive)
GI50 (K562): 7.16 µM (inactive)
GI50 (KM-20L2): 9.91 µM (inactive)
GI50 (KM12): 8.13 µM (inactive)
GI50 (LOX IMVI): 13.2 µM (inactive)
GI50 (LXFL 529): 7.41 µM (inactive)
GI50 (M14): 6.24 µM (inactive)
GI50 (M19-MEL): 7.18 µM (inactive)
GI50 (MOLT-4): 27.7 µM (inactive)
GI50 (Malme-3M): 16.6 µM (inactive)
GI50 (NCI-H226): 16.6 µM (inactive)
GI50 (NCI-H23): 13.4 µM (inactive)
GI50 (NCI-H460): 11.6 µM (inactive)
GI50 (NCI-H522): 11.8 µM (inactive)
GI50 (OVCAR-3): 9.27 µM (inactive)
GI50 (OVCAR-4): 14.1 µM (inactive)
GI50 (OVCAR-5): 16.8 µM (inactive)
GI50 (OVCAR-8): 6 µM (inactive)
GI50 (RPMI-8226): 8.49 µM (inactive)
GI50 (RXF 393): 17.2 µM (inactive)
GI50 (RXF 631): 15.9 µM (inactive)
GI50 (SF-268): 6.64 µM (inactive)
GI50 (SF-295): 13.7 µM (inactive)
GI50 (SF-539): 3.63 µM (inactive)
GI50 (SK-MEL-28): 8.95 µM (inactive)
GI50 (SK-MEL-5): 13.7 µM (inactive)
GI50 (SK-OV-3): 24.4 µM (inactive)
GI50 (SN12C): 16.6 µM (inactive)
GI50 (SNB-19): 10.3 µM (inactive)
GI50 (SNB-75): 9.14 µM (inactive)
GI50 (SNB-78): 15.5 µM (inactive)
GI50 (SR): 4.42 µM (inactive)
GI50 (SW-620): 4.91 µM (inactive)
GI50 (TK-10): 21.6 µM (inactive)
GI50 (U-251): 5.64 µM (inactive)
GI50 (UACC-257): 14.3 µM (inactive)
GI50 (UACC-62): 12.8 µM (inactive)
GI50 (UO-31): 14.5 µM (inactive)
GI50 (XF498): 19.2 µM (inactive)
